Measured values published in article PMC12787000 (Molecules, 2025).

Tests used:
[1] = test system: A375 cells; assay: Mitochondrial morphology staining (MitoTracker Green FM); assay type: cell-based; details: A375, 25 μM, 24 h
Experimental: For imaging of the mitochondrial morphology in live cells, A375 cells seeded in 96-well optical bottom plates, as above, were treated for 24 h with 25 μM telmisartan, compound 1, 3, or 8. Treatment was washed away, and cells were stained with 500 nM MitoTracker Green FM (#9074, Cell signaling Technology, Danvers, MA, USA) in RPMI without serum for 30 min at 37 °C. Cells were imaged on Zeiss PALM MicroBeam Axio Observer Z1 microscope (Carl Zeiss MicroImaging GmbH, Oberkochen, Germany) with Zeiss LD Plan-Neofluar 20×/0.4 Korr, ∞/0–1.5 mm lens and AxioVision software. Mitochondrial shape was quantified in images from two biological experimental repeats, in three random fields for each condition, using Image J Analyze Particles function. Images were first processed to 8-bit binary, and circularity and aspect ratio (major axis/minor axis) were calculated and plotted with Prism 9 (GraphPad Software, LLC, Boston, MA, USA). Treatments were compared with untreated control using one-way ANOVA and Dunnett’s multiple comparisons test. p < 0.05 was considered statistically significant.

[2] = Stability in biological media (HPLC); assay type: physicochemical; details: room temperature
Experimental: To test stability in biological media, three best drug candidates (compounds 1, 3, and 8) were dissolved in 0.05 M hydrochloric acid, pH 2.0, and phosphate buffer, pH 5.5 (prepared by dissolving sodium dihydrogen phosphate dihydrate and disodium hydrogen phosphate in distilled water, followed by the adjustment of pH by ortho-phosphoric acid) and RPMI 1640 medium. Stock solutions in DMSO (2 mg/mL) were diluted by corresponding medium to obtain working solutions (0.02 mg/mL) and incubated at room temperature in 0.05 M hydrochloric acid (2 h), phosphate buffer pH 5.5 (5 h), and RPMI 1640 medium (72 h). Compounds were injected freshly prepared, and after incubation time, the differences in concentrations was expressed as percentages. Quantification was performed on Dionex Ultimate 3000 HPLC system (Thermo Fisher Scientific, Dreieich, Germany), consisting of Dionex Ultimate 3000 quaternary pump, autosampler, and DAD detector. The column was Zorbax Extend C18 (150 mm × 4.6 mm, 5 µm particle size). The mobile phase was 0.1% formic acid/acetonitrile = 50/50 (compound 1) and 60/40 (compounds 3 and 8). The column temperature was adjusted to 25 °C, and the flow rate was 0.5 mL/min. The detection was performed at 300 nm.

Change in concentration after incubation in phosphate buffer pH 5.5 ([2]; phosphate buffer pH 5.5, 5 h) [%] | Change in concentration after incubation in 0.05 M hydrochloric acid ([2]; 0.05 M HCl, pH 2.0, 2 h) [%] | Change in concentration after incubation in RPMI 1640 medium ([2]; RPMI 1640 medium, 72 h) [%] | SMILES | Mitochondrial network morphology [1]
3.49 |  |  | CCCc1nc2c(C)cc(-c3nc4ccccc4n3C)cc2n1Cc1ccc(-c2ccccc2C(=O)NC(Cc2ccc(O)cc2)C(=O)O)cc1 (centres unmarked) [compound 3, 2-{[4′-(1,7′-dimethyl-2′-propyl-1H-[2,5′]bibenzoimidazolyl-3′-ylmethyl)-biphenyl-2-carbonyl]-amino}-3-(4-hydroxy-phenyl)-propionic acid] | disrupted the mitochondrial network to a greater extent than telmisartan
 | 3.04 | 2.00 | CCCc1nc2c(C)cc(-c3nc4ccccc4n3C)cc2n1Cc1ccc(-c2ccccc2C(=O)NC(Cc2ccccc2)C(=O)O)cc1 (centres unmarked) [compound 8, 2-{[4′-(1,7′-dimethyl-2′-propyl-1H-[2,5′]bibenzoimidazolyl-3′-ylmethyl)-biphenyl-2-carbonyl]-amino}-3-phenyl-propionic acid] | dramatic fission and clumping of mitochondria
